Patent US11498896B2 (The Broad Institute, Inc., priority 2014, dated 2022)
Where two headings read alike, the source gives them in different places.

Tests used:
human D2R/β-arrestin [1] = biological target: T1, human D2R/β-arrestin (Homo sapiens (Human), UniProt P14416); experiment: Gi/cAMP agonist assay (Lance Ultra cAMP, forskolin); assay type: cell-based; settings: CHO-K1 cells expressing human D2R/β-arrestin; agonist mode, 2.5 μM forskolin
Method: Eu-cAMP tracer solution (10 μl, PerkinElmer, 360 μl of Tracer in 17.64 ml kit buffer) and ULight-anti-cAMP solution (10 μl, 120 μL antibody in 17.88 ml kit buffer) was then added to each well.

human D2R/β-arrestin [2] = biological target: T1, human D2R/β-arrestin; settings: CHO-K1 cells expressing human D2R/β-arrestin, antagonist mode, quinpirole 130 nM; for IC50: read-out: β-arrestin Antagonist
D2 receptor = D2 receptor (Homo sapiens (Human), UniProt P14416); experiment: D2 radioligand binding assay
Chain of D2 receptor (P14416 whole entry): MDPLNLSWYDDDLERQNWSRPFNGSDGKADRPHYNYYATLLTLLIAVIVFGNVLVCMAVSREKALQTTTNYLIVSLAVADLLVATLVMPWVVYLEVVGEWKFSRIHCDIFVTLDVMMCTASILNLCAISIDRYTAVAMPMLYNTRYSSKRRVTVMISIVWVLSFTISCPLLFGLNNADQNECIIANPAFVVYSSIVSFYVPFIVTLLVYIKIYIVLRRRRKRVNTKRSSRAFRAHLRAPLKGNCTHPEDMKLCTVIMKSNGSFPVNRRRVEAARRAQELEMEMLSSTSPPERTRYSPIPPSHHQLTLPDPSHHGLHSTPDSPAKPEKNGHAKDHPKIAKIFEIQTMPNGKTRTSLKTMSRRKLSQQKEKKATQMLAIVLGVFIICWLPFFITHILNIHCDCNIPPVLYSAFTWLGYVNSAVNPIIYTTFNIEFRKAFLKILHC

human D2R/β-arrestin [3] = biological target: T1, human D2R/β-arrestin; experiment: cell-based; settings: cAMP Antagonist, CHO-K1 cells expressing human D2R/β-arrestin; antagonist mode, 2.5 μM forskolin and 2.7 nM quinpirole
human D2R/β-arrestin [4] = biological target: T1, human D2R/β-arrestin; experiment: β-arrestin agonist assay (PathHunter); assay type: cell-based; settings: CHO-K1 cells expressing human D2R/β-arrestin; agonist mode
Method: The detection reagent (9.6 μL, Buffer:Emerald II:Galactor-Star in a 19:5:1 ratio, i.e., 14.06 mL:3.7 mL:0.74 mL=18.5 mL) was then added to the agonist plates.

human D2R/β-arrestin [5] = biological target: T1, human D2R/β-arrestin; settings: read-out: cAMP Antagonist; CHO-K1 cells expressing human D2R/β-arrestin; antagonist mode, 2.5 μM forskolin and 2.7 nM quinpirole
Brain protein binding = assay type: in vitro ADME
human D2R/β-arrestin [6] = biological target: T1, human D2R/β-arrestin; experiment: cell-based; settings: β-arrestin Antagonist, CHO-K1 cells expressing human D2R/β-arrestin; antagonist mode, quinpirole 130 nM
[7] = Pharmacokinetic and brain distribution study in mice; assay type: in vivo; settings: single intraperitoneal dose 30 mg/kg, male C57BL/6 mice; for half-life / AUC / Cmax: mouse, ip
Method: Pharmacokinetic Studies on Mice Brains
Twelve male C57BL/6 mice were weighed and administered intraperitoneally with a dose of test compound (Examples 90, 157, 125) solution formulation. The dosing volume administered for the intraperitoneal route was at 10 mL/kg. Blood samples (approximately […]) were collected from retro-orbital plexus of each mouse under light isoflurane anesthesia at 0.08, 0.5, 1, 2, 4, and 8 hr. Following the collection of blood, plasma was also harvested by centrifugation and stored at −70° C. until analysis. After collection of plasma, the animals were euthanized and brain samples were isolated at 0.08, 0.5, 1, 2, 4, and 8 hr. Tissue samples (brain) were homogenized using ice-cold phosphate buffer saline (pH 7.4) and homogenates were stored below −70° C. until analysis. Total homogenate volume was three times the tissue weight. Concentrations of test compound in mouse plasma and brain samples were determined by LC-MS/MS method.
Identical extraction procedures were used for the plasma/brain homogenate study samples and the spiked plasma calibration standards: A 25 μL sample of either study sample (plasma/brain) or spiked calibration standard was added to individual pre-labeled micro-centrifuge tubes. A volume of 100 μL of IS (antipyrine, 500 ng/mL) prepared in acetonitrile was then added to the micro-centrifuge tubes, except in a sample used as a negative control where only acetonitrile was added and vortexed for 5 minutes. Samples were centrifuged for 20 minutes at the speed of 4000 rpm at 4° C. Following centrifugation, 100 μL of the supernatant was sampled from each centrifuge tube and transferred into insert vials. These vials remained within the auto-sampler for the LC/MS/MS analysis. Standards used for calibration were prepared by spiking 10 μL of the test compound in 190 μL of control (used as a negative control) mouse plasma/brain homogenate.
The plasma and brain concentration-time data of test compounds was provided for data analysis. The plasma and brain concentration-time data was then used for the pharmacokinetic analysis. Non-Compartmental-Analysis module in Phoenix® WinNonlin® (Version 6.3) was used to assess the pharmacokinetic parameters. Peak plasma concentrations (Cmax) and time for the peak plasma concentrations (Tmax) were the observed values. The areas under the concentration time curve (AUClast and AUCinf) were calculated by linear trapezoidal rule. The terminal elimination rate constant, ke was determined by regression analysis of the linear terminal portion of the log plasma concentration-time curve.
Illustrative results are presented in FIG. 2, the pharmacokinetic parameters are as follow: […]

[8] = brain, read-out: Brain T1/2 (converted)
[9] = plasma, read-out: Plasma T1/2 (converted)

T1 sequence (P14416 whole entry): as above

CC1(C(=O)Nc2ccccc2)CCN(CC2COc3ccccc3O2)CC1 (single isomer, unassigned) [Compound 204b, 1-((2,3-dihydrobenzo[b][1,4]dioxin-2-yl)methyl)-4-methyl-N-phenylpiperidine-4-carboxamide]
EC50 (human D2R/β-arrestin [1]): < 100 nM | IC50 (human D2R/β-arrestin [2]): 1000 to 10000 nM | Ki (D2 receptor): 100 to 1000 nM | IC50 (human D2R/β-arrestin [3]): 100 to 1000 nM | EC50 (human D2R/β-arrestin [4]): > 30000 nM

CC1(Oc2ccc(Cl)cc2)CCN(CCOc2ccc3ncsc3c2)C1 (stereo not drawn) [Compound 18b]
EC50 (human D2R/β-arrestin [1]): 100 to 1000 nM | IC50 (human D2R/β-arrestin [5]): > 30000 nM | IC50 (human D2R/β-arrestin [2]): 1000 to 10000 nM | Ki (D2 receptor): 1000 to 10000 nM | EC50 (human D2R/β-arrestin [4]): > 30000 nM

CC1(Oc2ccc(Cl)cc2)CCN(CCOc2ccc(C(F)(F)F)cc2)CC1 [Compound 125, 4-(4-Chlorophenoxy)-4-methyl-1-(2-(4-(trifluoromethyl)phenoxy)ethyl) piperidine]
EC50 (human D2R/β-arrestin [1]): 100 to 1000 nM | fraction unbound (Brain protein binding): 0.002 | IC50 (human D2R/β-arrestin [6]): > 30000 nM | Brain AUC ([7]; brain): 222.3 µM·h | Brain Cmax ([7]; brain): 37.9 µM | half-life [7, 8]: 7 h | AUC ([7]; plasma): 69.6 µM·h | Cmax ([7]; plasma): 19.8 µM | half-life [7, 9]: 13.4 h | Ki (D2 receptor): 1000 to 10000 nM | IC50 (human D2R/β-arrestin [3]): > 30000 nM | EC50 (human D2R/β-arrestin [4]): 10000 to 30000 nM

CC1(Oc2ccc(Cl)cc2)CCN(CCOc2ccc(F)cc2C(F)(F)F)CC1 [Compound 157, 4-(4-chlorophenoxy)-1-(2-(4-fluoro-2-(trifluoromethyl)phenoxy)ethyl)-4-methylpiperidine]
EC50 (human D2R/β-arrestin [1]): 100 to 1000 nM | fraction unbound (Brain protein binding): < 0.001 | IC50 (human D2R/β-arrestin [6]): 100 to 1000 nM | Brain AUC ([7]; brain): 70.4 µM·h | Brain Cmax ([7]; brain): 7.03 µM | half-life [7, 8]: 6 h | AUC ([7]; plasma): 14 µM·h | Cmax ([7]; plasma): 2.47 µM | half-life [7, 9]: 6.2 h | Ki (D2 receptor): 100 to 1000 nM | IC50 (human D2R/β-arrestin [3]): 100 to 1000 nM | EC50 (human D2R/β-arrestin [4]): > 30000 nM

CC1(Oc2ccncc2)CCN(CCOc2ccccc2)C1 (stereo not drawn) [Example 59b]
EC50 (human D2R/β-arrestin [1]): < 100 nM | IC50 (human D2R/β-arrestin [5]): > 30000 nM | IC50 (human D2R/β-arrestin [2]): > 30000 nM | Ki (D2 receptor): 10000 to 30000 nM | EC50 (human D2R/β-arrestin [4]): 1000 to 10000 nM

CC1(Oc2ccc(Cl)cc2)CCCN(CCOc2ccccc2F)C1 (stereo not drawn) [Example 98a]
EC50 (human D2R/β-arrestin [1]): > 30000 nM | IC50 (human D2R/β-arrestin [5]): < 100 nM | IC50 (human D2R/β-arrestin [2]): < 100 nM | Ki (D2 receptor): < 100 nM | EC50 (human D2R/β-arrestin [4]): > 30000 nM

FC(F)(F)c1ccccc1OCCN1CCC2(CC1)CC2c1ccccc1 (stereo not drawn) [Example 102a]
EC50 (human D2R/β-arrestin [1]): < 100 nM | IC50 (human D2R/β-arrestin [5]): > 30000 nM | IC50 (human D2R/β-arrestin [2]): 100 to 1000 nM | Ki (D2 receptor): 100 to 1000 nM | EC50 (human D2R/β-arrestin [4]): > 30000 nM

O=C1CCc2ccc(OCCCCN3CCCN(c4cccc(Cl)c4Cl)CC3)nc2N1 [UNC9975, reference compound]
cAMP Agonist (human D2R/β-arrestin [1]): B or A | β-arrestin Antagonist (human D2R/β-arrestin [2]): B or A
